According to ChEMBL document CHEMBL3751838, “Cytotoxic Activity of Salicylic Acid-Containing Drug Models with Ionic and Covalent Binding” (ACS Med Chem Lett, 2015):
pIC50: −log10 of the molar value.

Tests used:
[1] = Cytotoxicity against human Caco2 cells after 24 hrs by MTT assay; type: functional, cell-based, Caco-2
cells = type: ADME, cell-based; details: Homo sapiens, 3215LS, 24 h
Description: Cytotoxicity against human 3215LS cells after 24 hrs by MTT assay

[2] = Aqueous solubility of compound at room temperature; type: physicochemical; details: water

Compound	pIC50 ([1]; caco-2)	pIC50 ([1]; Homo sapiens, Caco-2, 24 h)	also measured
CCCCn1cc[n+](C)c1 [listing 1 of 3 here]	1.72		
CCCCCCn1cc[n+](C)c1 [listing 1 of 2 here]	2.21		
CCn1cc[n+](C)c1 [listing 1 of 2 here]	1.49		
CCCCn1cc[n+](C)c1 [listing 2 of 3 here]	1.95		
CCCCCCn1cc[n+](C)c1 [listing 2 of 2 here]	2.71		
C[n+]1ccn(CCCOC(=O)c2ccccc2O)c1		2.59	pIC50 (cells): 2.50
C[n+]1ccn(CCOC(=O)c2ccccc2O)c1.[Cl-]	2.42		solubility [2]: 267 mg/mL
COC(=O)[C@H](C)N		2.20	pIC50 (cells): 2.58
C[n+]1ccn(CCOC(=O)c2ccccc2O)c1		2.32	
CCn1cc[n+](C)c1 [listing 2 of 2 here]	2.22		
CCCCn1cc[n+](C)c1 [listing 3 of 3 here]	2.36		
O=C(O)c1ccccc1O [SALICYLIC ACID]		2.30	pIC50 (cells): 2.94
